# Assay results taken from patent US11976334B2, “Inhibitor of ATR kinase for use in a method of treating a hyper-proliferative disease” (Bayer Aktiengesellschaft, priority 2017, dated 2024).
# Legend:
# [1] = tested on: LNCaP human prostate cancer cells; test: Proliferation of LNCaP cells (CellTiter-Glow); type: cell-based; conditions: 144 h, R1881 1 nM, day 6, read-out: in vitro (IC50, nM), inhibition of tumor cell proliferation
# Protocol: They were plated in RPMI1640 medium without phenol red+10% charcoal-stripped FCS at 600 cells/well in a 384-well white plate. […] Cell number was determined by CellTiter-Glow (Promega) at day 0 and day 6. Luminescence was determined in Victor X3. The inhibition of cell growth was calculated by normalization with respect to the fluorescence reading (cell number) measured at the end of the experiment for cells treated with R1881 alone compared to the fluorescence reading (cell number) measured at the start of the experiment for DMSO-treated cells.
# [2] = tested on: 22RV1 human prostate cancer cells; test: Proliferation of 22Rv1 cells (crystal violet); type: cell-based; conditions: 96 h, 22Rv1, Prostate, 4 days, read-out: in vitro (IC50, nM), inhibition of tumor cell proliferation
# Protocol: (§1) 22RV1 human prostate cancer cells were obtained from the American Type Culture Collection (ATCC CRL-2505). They were plated in RPMI1640 medium supplemented with 10% FCS at 5000 cells/well in a 96-well microtiter plate. After 24 h, the cells from one microtiter plate were stained with crystal violet (==>0 plate), whereas the cells in the test plates were exposed continuously for 4 days to test substances. Cell proliferation was determined by staining with crystal violet. The absorbance was determined photometrically at 595 nm using a Tecan Sunrise instrument.
# [3] = tested on: VCaP human prostate cancer cells; test: Proliferation of VCaP cells (Alamar Blue); type: cell-based; conditions: 168 h, day 7, read-out: in vitro (IC50, nM), inhibition of tumor cell proliferation
# Protocol: VCaP human prostate cancer cells were obtained from the VTT Technical Research Center (Finland). They were plated in DMEM medium (DMEM=Dulbecco's Modified Eagle Medium) with stable glutamine+10% FCS at 16000 cells/well in a 96-well microtiter plate. […] Cell number was determined by Alamar Blue staining (2 h) at day 0 and day 7. Fluorescence was determined in a Victor X3 device (excitation 530 nm; emission 590 nm). The inhibition of cell growth was calculated by normalization with respect to the fluorescence reading (cell number) measured at the end of the experiment for cells treated with R1881 alone compared to the fluorescence reading (cell number) measured at the start of the experiment for DMSO-treated cells.
# [4] = tested on: LAPC-4 human prostate cancer cells; test: Proliferation of LAPC-4 cells (Alamar Blue); type: cell-based; conditions: 168 h, LapC4, Prostate, R1881 1 nM, day 7, read-out: in vitro (IC50, nM), inhibition of tumor cell proliferation
# Protocol: LAPC-4 human prostate cancer cells were obtained from the VTT Technical Resarch Center (Finland). They were plated in RPMI 1640 (RPMI=Roswell Park Memorial Institute) medium without phenol red+10% charcoal-stripped FCS (FCS=Fetal Calf Serum)+2 mM L-Glutamine at 4000 cells/well in a 96-well microtiter plate. […] Cell number was determined by Alamar Blue staining (2 h) at day 7. Fluorescence was determined in a Victor X3 device (excitation 530 nm; emission 590 nm). The inhibition of cell growth was calculated by normalization with respect to the fluorescence reading (cell number) measured at the end of the experiment for cells treated with R1881 alone compared to the fluorescence reading (cell number) measured at the end of the experiment for DMSO-treated cells.
# [5] = tested on: PC-3 human prostate cancer cells; test: Proliferation of PC-3 cells (crystal violet); type: cell-based; conditions: PC-3, 96 h, PC3, Prostate, 4 days, read-out: in vitro (IC50, nM), inhibition of tumor cell proliferation
# Protocol: as §1, with “PC-3” for “22RV1”, “DSMZ-German” for “American Type Culture”, “of Microorganisms and Cell Cultures (Germany) (DSMZ ACC-465).” for “(ATCC CRL-2505).”, “DMEM/Ham's F12” for “RPMI1640”, “medium” for “medium supplemented”, “stable Glutamine+10%” for “10%”
# [6] = tested on: C4-2B; test: Tumor cell proliferation, C4-2B (crystal violet); type: cell-based; conditions: Homo sapiens, 96 h, Prostate, 4 days, read-out: in vitro (IC50, nM), inhibition of tumor cell proliferation
# Source text: (§2) All measurements were done in quadruplicates.
# [7] = tested on: HCC70; test: Tumor cell proliferation, HCC70 (crystal violet); type: cell-based; conditions: Homo sapiens, 96 h; HCC70, Breast; 4 days; read-out: in vitro (IC50, nM), inhibition of tumor cell proliferation
# Source text: as §2
# [8] = tested on: HT29; test: Tumor cell proliferation, HT29 (crystal violet); type: cell-based; conditions: Homo sapiens, HT-29, 96 h; HT29, Colorectal; 4 days; read-out: in vitro (IC50, nM), inhibition of tumor cell proliferation
# Source text: as §2
# [9] = tested on: U-87MG; test: Tumor cell proliferation, U-87MG (crystal violet); type: cell-based; conditions: Homo sapiens, 96 h, Glioblastoma, 4 days, read-out: in vitro (IC50, nM), inhibition of tumor cell proliferation
# Source text: as §2
# [10] = tested on: M059J; test: Tumor cell proliferation, M059J (crystal violet); type: cell-based; conditions: Homo sapiens, 96 h, Glioblastoma, 4 days, read-out: in vitro (IC50, nM), inhibition of tumor cell proliferation
# Source text: as §2
# [11] = tested on: NCI-H2030; test: Tumor cell proliferation, NCI-H2030 (crystal violet); type: cell-based; conditions: Homo sapiens, 96 h; NCI-H2030, Lung; 4 days; read-out: in vitro (IC50, nM), inhibition of tumor cell proliferation
# Source text: as §2
# [12] = tested on: NCI-H23; test: Tumor cell proliferation, NCI-H23 (crystal violet); type: cell-based; conditions: Homo sapiens, 96 h; NCI-H23, Lung; 4 days; read-out: in vitro (IC50, nM), inhibition of tumor cell proliferation
# Source text: as §2
# [13] = tested on: A549; test: Tumor cell proliferation, A549 (crystal violet); type: cell-based; conditions: Homo sapiens, 96 h; A549, Lung; 4 days; read-out: in vitro (IC50, nM), inhibition of tumor cell proliferation
# Source text: as §2
# [14] = tested on: SU-DHL-8; test: Tumor cell proliferation, SU-DHL-8 (Cell Titer Glo); type: cell-based; conditions: Homo sapiens, 96 h; SU-DHL-8, Lymphoma, B cell; 4 days; read-out: in vitro (IC50, nM), inhibition of tumor cell proliferation
# Protocol: (§3) Non-adherent growing GRANTA-519, Jeko-1, JVM-2, NCI-H929, Rec-1 and SU-DHL-8 cells were seeded in 150 μl of growth medium at 4000 cells/well (NCI-H929, 5000 cells/well) in 96-well microtiter plates and incubated for 24 h at 37° C. […] All measurements were done in quadruplicates.
# [15] = tested on: TMD-8; test: Tumor cell proliferation, TMD-8; type: cell-based; conditions: Homo sapiens, TMD8, 96 h; TMD-8, Lymphoma, B cell; 4 days; read-out: in vitro (IC50, nM), inhibition of tumor cell proliferation
# Source text: as §2
# [16] = tested on: REC-1; test: Tumor cell proliferation, REC-1 (Cell Titer Glo); type: cell-based; conditions: Homo sapiens, Rec1, 96 h; REC-1, Lymphoma, mantle cell; 4 days; read-out: in vitro (IC50, nM), inhibition of tumor cell proliferation
# Protocol: as §3
# [17] = tested on: Jeko-1; test: Tumor cell proliferation, Jeko-1 (Cell Titer Glo); type: cell-based; conditions: Homo sapiens, 96 h; Jeko-1, Lymphoma, mantle cell; 4 days; read-out: in vitro (IC50, nM), inhibition of tumor cell proliferation
# Protocol: as §3
# [18] = tested on: GRANTA-519; test: Tumor cell proliferation, GRANTA-519 (Cell Titer Glo); type: cell-based; conditions: Homo sapiens, 96 h; GRANTA-519, Lymphoma, mantle cell; 4 days; read-out: in vitro (IC50, nM), inhibition of tumor cell proliferation
# Protocol: as §3
# [19] = tested on: JVM-2; test: Tumor cell proliferation, JVM-2 (Cell Titer Glo); type: cell-based; conditions: Homo sapiens, 96 h; JVM-2, Lymphoma, mantle cell; 4 days; read-out: in vitro (IC50, nM), inhibition of tumor cell proliferation
# Protocol: as §3
# [20] = tested on: HT-144; test: Tumor cell proliferation, HT-144 (crystal violet); type: cell-based; conditions: Homo sapiens, 96 h; HT-144, Melanoma; 4 days; read-out: in vitro (IC50, nM), inhibition of tumor cell proliferation
# Source text: as §2
# [21] = tested on: SK-OV-3; test: Tumor cell proliferation, SK-OV-3 (crystal violet); type: cell-based; conditions: Homo sapiens, 96 h; SK-OV-3, Ovarian; 4 days; read-out: in vitro (IC50, nM), inhibition of tumor cell proliferation
# Source text: as §2
# [22] = tested on: BxPC3; test: Tumor cell proliferation, BxPC3 (crystal violet); type: cell-based; conditions: Homo sapiens, BXPC-3, 96 h; BxPC3, Pancreas; 4 days; read-out: in vitro (IC50, nM), inhibition of tumor cell proliferation
# Source text: as §2
# [23] = tested on: AsPc-1; test: Tumor cell proliferation, AsPc-1 (crystal violet); type: cell-based; conditions: Homo sapiens, ASPC1, 96 h; AsPc-1, Pancreas; 4 days; read-out: in vitro (IC50, nM), inhibition of tumor cell proliferation
# Source text: as §2
# [24] = tested on: MIAPaCa2; test: Tumor cell proliferation, MIAPaCa2 (crystal violet); type: cell-based; conditions: Homo sapiens, MIA PaCa-2, 96 h; MIAPaCa2, Pancreas; 4 days; read-out: in vitro (IC50, nM), inhibition of tumor cell proliferation
# Source text: as §2
# [25] = tested on: DLD-1 parental; test: Isogenic tumor cell line proliferation, DLD-1 parental; type: cell-based; conditions: Homo sapiens, 168 h, Colorectal, 7 days, CTG, read-out: in vitro (IC50, nM), inhibition of isogenic tumor cell line proliferation
# Protocol: (§4) The isogenic DLD-1 cell lines DLD-1 parental, DLD-1 BRCA2 (−/−) and DLD-1 ATM (−/−) (see Table 3: Test systems) were seeded in RPMI 1640 (RPMI=Roswell Park Memorial Institute) medium without phenol red+10% charcoal-stripped FCS (FCS=Fetal Calf Serum)+2 mM L-Glutamine+25 mM Sodium Bicarbonate at 2,500 cells/well in a 96-well microtiter plate. […] All measurements were done in quadruplicates.
# [26] = tested on: DLD-1 BRCA2 (−/−); test: Isogenic tumor cell line proliferation, DLD-1 BRCA2 (−/−); type: cell-based; conditions: Homo sapiens, 168 h, BRCA2 deficiency, 7 days, CTG, read-out: in vitro (IC50, nM), inhibition of isogenic tumor cell line proliferation
# Protocol: as §4
# [27] = tested on: A2780 xenograft (ovarian); conditions: mouse, in vivo, po, 50 mg/kg
# Protocol: (§5) For this purpose, mice were implanted subcutaneously with tumor cells. […] The oral application volume was 10 ml/kg. The time interval between two applications per day was 6-7 h. […] The tumor size and the body weight were determined three times weekly. Changes in the body weight were a measure of treatment-related toxicity (>10%=critical, stop of treatment until recovery, >20%=toxic, termination). The tumor area was detected by means of an electronic caliper gauge [length (mm)×width (mm)]. In vivo anti-tumor efficacy is presented as T/C ratio (Treatment/Control) calculated with tumor areas at study end by the formula [(tumor area of treatment group at day x)−(tumor area of treatment group at day before first treatment)]/[(tumor area of control group at day x)−(tumor area of control group at day before first treatment)]. […] Statistical analysis was assessed using SigmaStat software. A one-way analysis of variance was performed and differences to the control were compared by a pair-wise comparison procedure (Dunn's method).
# [28] = tested on: LOVO xenograft (colorectal cancer); conditions: mouse, in vivo, po, 50 mg/kg
# Protocol: as §5
# [29] = tested on: PC3 xenograft (prostate); conditions: mouse, in vivo, po, 50 mg/kg
# Protocol: as §5
# [30] = tested on: REC-1 xenograft (mantle cell lymphoma); conditions: mouse, in vivo, po, 50 mg/kg
# Protocol: as §5
structure (smiles),measurement,setting,value
"C[C@@H]1COCCN1c1cc(-c2ccnn2C)c2ccnc(-c3ccn[nH]3)c2n1 [Compound A, 2-[(3R)-3-methylmorpholin-4-yl]-4-(1-methyl-1H-pyrazol-5-yl)-8-(1H-pyrazol-5-yl)-1,7-naphthyridine]",IC50,[1],18 nM
same,IC50,[2],36 nM
same,IC50,[3],51 nM
same,IC50,[4],55 nM
same,IC50,[5],490 nM
same,IC50,[6],50 nM
same,IC50,[7],27 nM
same,IC50,[8],160 nM
same,IC50,[9],64 nM
same,IC50,[10],80 nM
same,IC50,[11],160 nM
same,IC50,[12],18 nM
same,IC50,[13],29 nM
same,IC50,[14],9 nM
same,IC50,[15],179 nM
same,IC50,[16],10 nM
same,IC50,[17],18 nM
same,IC50,[18],30 nM
same,IC50,[19],32 nM
same,IC50,[20],40 nM
same,IC50,[21],33 nM
same,IC50,[22],44 nM
same,IC50,[23],49 nM
same,IC50,[24],380 nM
same,IC50,[25],50 nM
same,IC50,[26],27 nM
same,Max. weight loss (%),[27],−6%
same,Max. weight loss (%),[28],−8%
same,Max. weight loss (%),[29],−7%
same,Max. weight loss (%),[30],−10%
